The values that follow come from patent US20180110721A1, “TOPICAL COSMETIC COMPOSITIONS AGAINST FREE RADICALS” (THE BOOTS COMPANY PLC, priority 2015, published 2018).

The structures appear in SMILES notation.

The assay in a line: Lipid Peroxidation (LPO) assay. Type of assay: biochemical. The settings on record: 2% linoleic acid + 1% trolox in methanol, solar simulator UV dose 36x10^4 J/m^2; FIG. 2 column 2, negative control. The source says:
Lipids are present in the cell membrane bilayer. Peroxidation of lipids compromises the integrity of skin cells and […] the ageing process resulting in premature ageing. The LPO assay is designed to determine the level of LPO damage in the skin with and without external stresses such as UV exposure; and investigating whether early defence complex can protect against the UV induced LPO damage. K-assay LPO-CC004 lipid peroxidation kit (Kamiya biomedical company)˜500 assays containing— • Reagent 1 (liquid): Enzyme reagent (ascorbic oxidase, lipoprotein lipase, stabilizer, goods buffer, surfactants) • Reagent 2A: Lyophilised chromogen reagent (MCDP for 110 ml reagent 2B) • Reagent 2B: Buffer solution (liquid) (goods buffer, hemoglobin, surfactants) • Calibrator (liquid): (50 nmol/ml cumene hyderoperoxide) • D-squames (CuDerm Corp. Dalla, USA) • Linoleic acid (L.A) • Methanol (MeOH) • Deionised water (dH2O) • 96 well flat bottom clear plate • Plate reader Unless otherwise stated all the samples were prepared weight per volume in methanol. […] Absorbance was read at 675 nm. For each well, the methanol background reading was subtracted from the absorbance reading. […] As samples were run in triplicate, the mean of each sample was then calculated. […]

With `Cc1c(C)c2c(c(C)c1O)CCC(C)(C(=O)O)O2` (stereo not shown) [Trolox], the “oxidation (lipid peroxidation, absorbance at 675 nm)” value is “very low oxidation”.
